{
  "source": "patent US7521432B2",
  "about": "“Compositions and methods for identifying agents which regulate chromosomal stability, gene activation and aging” (priority 2000, dated 2009)",
  "key": {"human HeLa cell extracts": {"system": "human HeLa cell extracts", "assay": "O-acetyl-ADP ribose utilization by enzymes from human HeLa cell extracts", "assay_type": "in vitro ADME", "settings": "HeLa cell extract vs buffer control, time points up to 3 hrs, HPLC", "procedure": "P/CAF [^3H]-monoacetylation of H3 peptide. The histone acetyltransferase P/CAF was used to monoacetylate H3 peptide on Lysine 14 (12). P/CAF (0.175 μM) was mixed with [^3H]-acetyl CoA (33.3 μM, 1.88 Ci/mmol) and H3 peptide (175 μM) for 20 min at 25° C. prior to quenching with TFA to 1%. Mono [^3H]-acetylated H3 peptide was separated from unmodified H3 by HPLC analysis as described above. MALDI/ESI Mass Spectrometry Analyses. MALDI mass spectrometry was performed (Oregon State University, Environmental Health Sciences Center) on a custom-built reflector time-of-flight mass spectrometer equipped with a two-stage delayed extraction source. […] Every mass spectrum was recorded as the sum of 20 consecutive spectra, each produced by a single pulse of photons. […] The amount of [^3H]-AcLys14 H3 peptide and [^3H]-O-acetyl ADP ribose was determined by liquid scintillation counting of these species separated on reverse phase HPLC. […] Protein concentrations of supernatants were determined by the method of Bradford. […]\nTo provide evidence for the existence of human cellular proteins/enzymes that are capable of binding and catalyzing the conversion or decomposition of O-acetyl-ADP ribose, human HeLa cell extracts were generated and the ability of proteins within the extract to catalyze the decomposition of O-acetyl-ADP ribose was assessed. […]"}, "[1]": {"system": "Asterina miniata immature oocytes", "assay": "Microinjection into immature starfish oocytes, oocyte maturation (GVBD, polar body extrusion)", "assay_type": "cell-based", "settings": "for effect on oocyte maturation as assessed by GVBD and polar body extrusion: microinjected, compared to control injections, text summary", "procedure": "Asterina miniata gametes were collected and microinjections were performed as described previously (Carroll et al., 1999). Briefly, quantitative microinjection of Asterina miniata oocytes was performed at 16° C., using mercury-filled micropipets (Hiramoto, 1962; Kiehart, 1982; and see the information available at http://egg/uchc.edu/injection), allowing injection of precisely calibrated picoliter volumes into the oocytes and blastomeres. Injection volumes were 3% of the total cellular volume (for oocytes, 93 pL and for blastomeres, 47 pL). Buffer alone, purified O-acetylated ADP ribose or recombinant protein was injected into immature oocytes or one blastomere of a two cell stage embryo to a final concentration in the cytoplasm as indicated in the figure legends and Tables. 1-methyl adenine was from Sigma and was used at 10 μM.\nMicro-injection assays were performed in starfish and sea urchin ooctyes. Historically echinoderm development has been a biochemically tractable and well-defined system to assess biological function of pruteins, bio-active compounds and for detailed analyses of the cell cycle. This system is attractive for its amenability to quantitative microinjection assays, cell cycle analyses, biochemical fractionation and microscopic imaging of eggs and early embryos. Initially, we hypothesized that if O-acetyl-ADP ribose produced by SIR2 was involved in SIR2's gene silencing ability, then micro-injection of O-acetyl-ADP ribose into a maturing oocyte should give rise to a phenotypic effect on the developing animal, perhaps through perturbations in normal gene expression patterns. Immature oocytes were micro-injected with HPLC-purified O-acetyl-ADP ribose or with a buffer control. The oocytes were allowed to mature by the addition of 1-methyladenine and assessed for developmental alterations.\nAsterina miniata immature oocytes were microinjected with the amounts of O-acetyl ADP ribose in PBS. The maturation hormone 1-methyladenine was added (10 μM) 25-30 minutes post-injection. Oocytes were monitored for GVBD and polar body extrusion. […] The number of oocytes per treatment is given. Combined results of 3 separate experiments (3 batches of O-acetyl ADP ribose).\nAsterina miniata immature oocytes were microinjected with the given enzymes in PBS. The maturation hormone 1-methyladenine was added (10 μM) 25-30 minutes post-injection. Oocytes were monitored for GVBD and polar body extrusion. […] The number of oocytes per treatment (n) is given. Data are from four separate batches of oocytes. All oocytes for a given treatment responded in the same way unless indicated otherwise (e.g. see 200 nM HST2 injection)."}, "[2]": {"settings": "0.2 mg/ml (0.32 mM) in cytoplasm"}, "[3]": {"settings": "0.5 mg/ml (0.8 mM) in cytoplasm"}, "[4]": {"settings": "1.0 mg/ml (1.6 mM) in cytoplasm"}},
  "data": [
    {"substance": "O-acetyl-ADP ribose", "values": [
      {"measurement": "conversion/consumption of O-acetyl-ADP ribose by cell extract", "setting": "human HeLa cell extracts", "result": "convert O-acetyl-ADP ribose to a distinct, but as yet unidentified species"},
      {"measurement": "conversion/consumption of O-acetyl-ADP ribose by cell extract", "setting": "human HeLa cell extracts; listed as O-acetyl ADP ribose", "result": "capable of consuming O-acetyl ADP ribose"},
      {"measurement": "no effect (oocytes)", "setting": "[1]; 0.01 mg/ml (0.016 mM) in cytoplasm", "result": "8/8"},
      {"measurement": "no effect (oocytes)", "setting": "[1]; 0.1 mg/ml (0.16 mM) in cytoplasm", "result": "16/16"},
      {"measurement": "compete block (oocytes)", "setting": "[1]; [2]", "result": "1/8"},
      {"measurement": "no effect (oocytes)", "setting": "[1]; [2]", "result": "7/8"},
      {"measurement": "1-2 hr delay (oocytes)", "setting": "[1]; [3]", "result": "10/16"},
      {"measurement": "compete block (oocytes)", "setting": "[1]; [3]", "result": "6/16"},
      {"measurement": "1-2 hr delay (oocytes)", "setting": "[1]; [4]", "result": "1/23"},
      {"measurement": "compete block (oocytes)", "setting": "[1]; [4]", "result": "22/23"},
      {"measurement": "compete block (oocytes)", "setting": "[1]; 1.7 mg/ml (3 mM) in cytoplasm", "result": "6/6"},
      {"measurement": "immediate death (oocytes)", "setting": "[1]; 3.0 mg/ml (5 mM) in cytoplasm", "result": "1/3"},
      {"measurement": "no effect (oocytes)", "setting": "[1]; 3.0 mg/ml (5 mM) in cytoplasm, 1-methyladenine 10 μM", "result": "2/3"},
      {"measurement": "immediate death (oocytes)", "setting": "[1]; 10 mg/ml (16 mM) in cytoplasm", "result": "2/2"},
      {"measurement": "effect on apoptosis of unfertilized oocyte", "setting": "[1]; apoptosis normally occurs after ~24 hrs if not fertilized", "result": "delayed apoptosis"},
      {"measurement": "GV breakdown, polar body extrusion and apoptosis of injected oocytes", "setting": "[1]; final 1 mg/mL, images 3 and 24 hr post hormone treatment, FIG. 9", "result": "did not undergo GV breakdown or polar body extrusion, nor did they undergo apoptosis"},
      {"measurement": "effect on oocyte maturation as assessed by GVBD and polar body extrusion", "setting": "[1]", "result": "a delay in germinal vesicle breakdown (GVBD), or a complete block in oocyte maturation"},
      {"measurement": "effect on oocyte maturation as assessed by GVBD and polar body extrusion", "setting": "[1]; listed as O-acetyl ADP ribose", "result": "block oocyte maturation"},
      {"measurement": "concentration below which no effect was observed (dose-dependency)", "setting": "[1]; oocyte maturation", "result": "below 0.32 mM"}
    ]}
  ]
}
